Laboratory results published in patent publication US20210177828A1, “TAM FAMILY KINASE /AND CSF1R KINASE INHIBITOR AND USE THEREOF” (Nanjing Transthera Biosciences Co., Ltd., priority 2018, published 2021).

Legend:
[1] = target: T1, H1299 cell pMer (Homo sapiens, UniProt Q12866); experiment: Inhibitory activity on cell pMer, H1299 cells, Human Mer Mab stimulation, Western Blot; type: cell-based; conditions: Human Mer Mab 200 ng/mL
T1 construct: endogenous in cells; host or cells: H1299
T1 sequence (Q12866 21-999): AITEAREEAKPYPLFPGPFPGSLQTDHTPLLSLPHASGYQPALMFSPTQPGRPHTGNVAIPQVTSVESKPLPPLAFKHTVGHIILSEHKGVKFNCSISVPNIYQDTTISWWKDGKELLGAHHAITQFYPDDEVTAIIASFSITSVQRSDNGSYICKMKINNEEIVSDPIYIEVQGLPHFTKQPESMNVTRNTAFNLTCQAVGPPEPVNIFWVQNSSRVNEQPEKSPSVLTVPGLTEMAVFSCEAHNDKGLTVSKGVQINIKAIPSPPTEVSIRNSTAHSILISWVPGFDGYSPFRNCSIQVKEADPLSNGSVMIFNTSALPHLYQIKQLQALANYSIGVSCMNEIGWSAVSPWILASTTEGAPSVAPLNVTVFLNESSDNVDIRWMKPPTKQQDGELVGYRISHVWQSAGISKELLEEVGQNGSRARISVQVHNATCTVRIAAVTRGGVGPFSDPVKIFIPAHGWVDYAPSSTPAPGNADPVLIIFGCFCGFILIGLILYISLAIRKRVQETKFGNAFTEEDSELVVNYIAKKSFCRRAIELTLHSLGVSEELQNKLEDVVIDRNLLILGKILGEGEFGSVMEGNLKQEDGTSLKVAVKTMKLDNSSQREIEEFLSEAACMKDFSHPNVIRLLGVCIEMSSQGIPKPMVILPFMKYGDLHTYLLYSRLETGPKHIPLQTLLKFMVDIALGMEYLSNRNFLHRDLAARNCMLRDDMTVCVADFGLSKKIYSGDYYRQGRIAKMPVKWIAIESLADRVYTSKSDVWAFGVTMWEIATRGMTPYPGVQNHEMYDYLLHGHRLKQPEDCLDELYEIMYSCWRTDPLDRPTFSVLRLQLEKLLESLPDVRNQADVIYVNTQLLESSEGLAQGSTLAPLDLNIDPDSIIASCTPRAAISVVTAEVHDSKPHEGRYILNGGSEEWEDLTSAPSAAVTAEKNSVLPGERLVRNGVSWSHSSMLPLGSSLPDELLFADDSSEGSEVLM
Method: H1299 is anon-small cell lung cancer cell.
H1299 cells were inoculated to a 6-well plate (containing 10% FBS 1640 medium, 5×10^5 cells per well) and adherently cultivated at 37° C., and 5% CO2 for 18 hrs. The cells were starved overnight, and then compound solutions with different concentrations were added. The compounds had final concentrations of 0.35, 1.1, 3.3 and 10 nM. […] There was a medium containing 1‰DMSO in the negative control well. The cells were incubated at 37° C., and 5% CO2 for 60 min, and then Human Mer Mab (R&D, final concentration: 200 ng/mL) was added to each well. The cells were further incubated for 60 min, and then the total protein of the cells was extracted for Western Blot experiment. Gray analysis was performed on the results with Image J software, and IC50 values were calculated with GraphPad 5.0 software. The inhibitory activities of the compounds on cell pMer were detected.

[2] = Liver microsomal stability; type: in vitro ADME; conditions: mouse liver microsomes, 0.5 mg protein/mL, 1 μM compound
Method: An appropriate amount of the compound was precisely weighed and dissolved in DMSO to prepare a 5.0 mM stock solution. The 5.0 mM stock solution was diluted with DMSO to 1.0 mM, and finally diluted with water to a 10 μM working solution of the test sample for use (the DMSO content in the reaction system was 0.1%).
(1) The liver microsomes (20 mg protein/mL) were taken from a −80° C. refrigerator, pre-incubated on a 37° C. water bath thermostatic oscillator for 3 min, and thawed for use.
(2) An incubation system (without compound and β-NADPH) was prepared according to “composition of the incubation system” described above, and pre-incubated on a 37° C. water bath thermostatic oscillator for 2 min.
(3) Control group (without β-NADPH): 30 μL of water and 30 μL of compound working solution (10 μM) were added to 240 μL of the incubation system in step (2), and the reaction system was vortexed for 30 s and thoroughly mixed. The total volume of the reaction system was 300 μL. The sample was duplicated. The reaction solution was placed on a 37° C. water bath thermostatic oscillator for incubation, and timing was started. The sampling was conducted at 0 min and 60 min.
(4) Sample group: 70 μL of β-NADPH solution (10 mM) and 70 μL of compound working solution (10 μM) were added to 560 μL of the incubation system in step (2), and the total volume of the reaction system was 700 μL. The reaction solution was vortexed for 30 s and thoroughly mixed. The sample was duplicated. The reaction solution was placed on a 37° C. water bath thermostatic oscillator for incubation, and timing was started. The sampling was conducted at 0 min, 5 min, 10 min, 20 min, 30 min and 60 min.
(5) The reaction solution was vortexed for 3 min, and centrifuged at 12,000 rpm for 5 min.
(6) 50 μL of the supernatant was added to 150 μL of water, and the resulting solution was thoroughly vortexed and analyzed by LC/MS/MS.

IC50 [1] [nM] | half-life at 1 μM [2] [h] | microsomal CLint at 1 μM [2] [µL/min/mg] | Structure (SMILES)
< 1.1 | 5.02 | 4.6 | COc1cc2nccc(Oc3ccc(NC(=O)c4cn(C5CCOCC5)cc(-c5ccc(F)cc5)c4=O)nc3)c2cc1OC [Compound 27, N-(5-((6,7-dimethoxyquinolin-4-yl)oxy)pyridin-2-yl)-5-(4-fluorophenyl)-4-oxo-1-(tetrahydro-2H-pyran-4-yl)-1,4-dihydropyridin-3-carboxamide]
1.1 | 3.5 | 6.6 | COc1cc2nccc(Oc3cnc(NC(=O)c4nn(CC5CCOCC5)cc(-c5ccc(C)cc5)c4=O)nc3)c2cc1OC [Compound 16, N-(5-((6,7-dimethoxyquinolin-4-yl)oxy)pyrimidin-2-yl)-4-oxo-1-((tetrahydro-2H-pyran-4-yl)methyl)-5-(p-tolyl)-1,4-dihydropyridazin-3-carboxamide]
< 0.35 | 1.87 | 12.4 | COc1cc2nccc(Oc3ccc(NC(=O)c4nn(C5CCOCC5)cc(-c5ccc(C)cc5)c4=O)nc3)c2cc1OC [Compound 17, N-(5-((6,7-dimethoxyquinolin-4-yl)oxy)pyridin-2-yl)-4-oxo-1-(tetrahydro-2H-pyran-4-yl)-5-(p-tolyl)-1,4-dihydropyridazin-3-carboxamide]
